Counter-ions that a name gives are not always drawn.
Key:
[1] = system: dogs suffering from Goldblatt hypertension; assay: Effect of single oral administration on blood pressure of dogs suffering from Goldblatt hypertension; format: in vivo, Female beagles; details: 10 mg/kg oral; for reduction in the blood pressure / blood pressure after 3 h: once, after 3 h; for reduction in the blood pressure: result in words; for blood pressure after 3 h / blood pressure before administration: systolic pressure; for blood pressure after 3 h: control group 201±3 mmHg, unchanged after 5 h; for blood pressure before administration: artery of the tail
Procedure: Nicardipine hydrochloride was used as a control. The dose was 5 ml/kg.

[2] = Acute toxicity (LD50) in mice; details: mouse, in vivo, Mice (ICR)
[3] = Acute toxicity (LD50) in rats; details: rat, in vivo, Rats (SD)
[4] = Acute toxicity (LD50) in dogs; details: dog, in vivo, po, Dogs (Beagles)
[5] = Solubility (physico-chemical properties); format: physicochemical
[6] = system: dogs suffering from Goldblatt hypertension; details: 10 mg/kg oral
Procedure: Nicardipine hydrochloride was used as a control. The dose was 5 ml/kg. Commercially available tablets were given as they were by oral administration. Female beagles suffering from Goldblatt hypertension of "one clip one kidney" type were used. […] The blood pressure and heart rate were measured in the artery of the tail of each dog in a closed manner with a device for continuously measuring the systolic pressure (SCS-301; a product of Shimadzu Seisakusho Ltd.). […] The effects of eperisone hydrochloride given once by oral administration on the blood pressure and heart beat were compared with those of nicardipine hydrochloride. The nine beagles were divided into three groups, i.e. a control group, a group to which 10 mg/kg of eperisone hydrochloride was given and another group to which 10 mg/kg of nicardipine hydrochloride was given. Nine beagles were subjected to the tests of all three groups. Namely, administration was discontinued at intervals of one week according to Latin square. The blood pressure and heart rate were measured before administration and then at specified intervals from one hour to five hours after administration. The analysis of variance was conducted by the time series analysis. The test groups were compared with the control group by Dunnet's method.

| Structure (SMILES) | reduction in the blood pressure [1] | blood pressure after 3 h [1] | blood pressure before administration [1] | LD50 ([2]; iv, female) | LD50 ([2]; iv, male) | LD50 ([2]; po, female) | LD50 ([2]; po, male) | LD50 ([3]; iv, female) | LD50 ([3]; iv, male) | LD50 ([3]; po, female) | LD50 ([3]; po, male) | LD50 ([4]; female) | LD50 ([4]; male) | solubility in acetic anhydride ([5]; acetic anhydride) | solubility in acetone ([5]; acetone) | solubility in ethanol ([5]; ethanol) | solubility in ether ([5]; ether) | solubility in water, methanol, chloroform or glacial acetic acid ([5]; water, methanol, chloroform or glacial acetic acid) | solubility in water ([5]; water, agents used in the pharmacological experiment) | heart rate before administration [6] |
| --- | --- | --- | --- | --- | --- | --- | --- | --- | --- | --- | --- | --- | --- | --- | --- | --- | --- | --- | --- | --- |
| CCc1ccc(C(=O)C(C)CN2CCCCC2)cc1 (stereo not drawn) [eperisone hydrochloride, Eperisone hydrochloride] | a significant reduction in the blood pressure was observed | 172±3 mmHg | 202±4 mmHg | 43.5 mg/kg | 43 mg/kg | 940 mg/kg | 1040 mg/kg | 60 mg/kg | 51 mg/kg | 1300 mg/kg | 1300 mg/kg | > 750 mg/kg | > 1080 mg/kg | relatively difficultly soluble | difficultly soluble | relatively easily soluble | scarcely soluble | easily soluble | water-soluble | 97±5 beats/min |
| COC(=O)C1=C(C)NC(C)=C(C(=O)OCCN(C)Cc2ccccc2)C1c1cccc([N+](=O)[O-])c1 (stereo not drawn) [nicardipine hydrochloride, Nicardipine hydrochloride, reference compound] | a significant reduction in the blood pressure was also observed | 164±4 mmHg | 200±4 mmHg | – | – | – | – | – | – | – | – | – | – | – | – | – | – | – | – | 106±7 beats/min |

— US5002958A, “Hypotensive agent” (priority 1987, dated 1991)
